Test results as given in publication PMC12499601 (Pulmonary pharmacology & therapeutics, 2024).
Several values for one entry are separate records, joined by “and”; a condition that tells them apart may be missing. Identical values can stand only once. Like-named read-outs stand apart in the source and are kept apart here.

Experiments:
HNEs, HBEs, and CFBEs = type: in vitro ADME, human; conditions: ALI cultures, 1000nM of Iva basolateral, 48 hours; for metabolite detected in apical or basolateral media: media prior to cell lysis (data not shown)
CFTR = conditions: cited from earlier work
[1] = system: human nasal epithelial cells; test: Capillary plasma versus nasal epithelial cell concentrations; type: in vivo; conditions: nasal epithelial cell lysate of participants taking ivacaftor
[2] = type: in vivo, human; conditions: capillary plasma, pwCF, ivacaftor 150mg twice daily steady state, n = 8; for Cmax / half-life: human, oral, 150 mg
Metabolite:parent ratio = type: in vivo, human; conditions: capillary plasma, metabolite:Iva, 12 hour dosing interval
[3] = pwCF; cited from earlier work
16HBE cells = test: Uptake of metabolites into 16HBE cells at ALI, LC-MS/MS of cellular lysate; type: in vitro ADME, human; conditions: for mean concentration detected in the cells: 16HBE at ALI, 1000nM of the compound in basolateral media, 48 hours; for crossing of the plasma membrane of airway epithelial cells: 16HBE in vitro model
[4] = type: in vivo, human; conditions: plasma of a participant taking ivacaftor
dopamine transporter = conditions: cited from earlier work
β3-adrenergic receptor = conditions: cited from earlier work
5-HT2C receptor = conditions: cited from earlier work
CYP3A4 = conditions: in vitro; cited from earlier work
δ-opioid receptor = conditions: cited from earlier work
nasal brushings lysate = conditions: pwCF; cited from earlier work

Molecule | metabolite detected in cells treated with Iva (HNEs, HBEs, and CFBEs; cell lysate) | metabolite detected in apical or basolateral media (HNEs, HBEs, and CFBEs) | activity relative to parent Iva (CFTR) | potentiation activity relative to that of Iva (CFTR) | Cavg, Mean (SD) [2] | Cavg, Median (min, max) [2] | Cmax, Mean (SD) [2] | Cmax, Median (min, max) [2] | Cmin, Mean (SD) [2] | Cmin, Median (min, max) [2] | T1/2, Mean (SD) [2] | T1/2, Median (min, max) [2] | Tmax, Mean (SD) [2] | Tmax, Median (min, max) [2] | mean metabolite:parent ratio (MPR) (Metabolite:parent ratio) | Cavg, venous plasma [3] [ng/mL] | mean concentration detected in the cells (16HBE cells) | crossing of the plasma membrane of airway epithelial cells (16HBE cells) | effect on CYP3A4 activity (CYP3A4) | also measured
CC(C)(C)c1cc(C(C)(C)C(=O)O)c(O)cc1NC(=O)c1c[nH]c2ccccc2c1=O [M6-Iva, ivacaftor carboxylate] | No M1-Iva and M6-Iva were detected | no M1-Iva and M6-Iva were detected | inactive metabolite | 1/50 | 797 (430) ng/mL | 842 (231, 1418) ng/mL | 927 (456) ng/mL | 918 (265, 1630) ng/mL | 522 (365) ng/mL | 527 (5.8, 1070) ng/mL | 8.8 (6.6) h | 8.8 (4.2, 13.5) h | 6.9 (3.7) h | 8 (4, 10) h | 1.6 | 3821 | 15 ng/ml and 0.04 μM | does not readily cross the plasma membrane |  | detection in cellular samples [1]: found only in one cellular sample; average concentration in the cellular lysate (16HBE cells; 16HBE, 5000nM of the compound, 48 hours (data not shown)): 81 ng/ml and 0.19 μM
ivacaftor hydrate [Iva-hydrate] |  |  |  |  |  |  |  |  |  |  |  |  |  |  |  |  |  |  |  | detection in plasma (qualitative) [4]: small peaks
CC(C)(C)c1cc(C(C)(C)C)c(NC(=O)c2c[nH]c3ccccc3c2=O)cc1O [Iva, ivacaftor] |  |  |  |  | 532 (343) ng/mL | 416(221, 1206) ng/mL |  |  | 352 (245) ng/mL | 287 (113, 813) ng/mL |  |  |  | 5 (4, 6) h |  |  |  |  | reduce CYP3A4 activity | parent compound detected in cells (HNEs, HBEs, and CFBEs; cell lysate): detected in all the cell types; affinity (dopamine transporter): significant affinity; Cmax ([2]; Mean (SD)): 744 ng/mL; Cmax ([2]; Median (min, max)): 552 ng/mL; half-life ([2]; T1/2, Mean (SD)): 7.9 h; half-life ([2]; T1/2, Median (min, max)): 6.7 h; affinity (β3-adrenergic receptor): significant affinity; affinity (5-HT2C receptor): significant affinity; affinity (δ-opioid receptor): significant affinity
CC(C)(C)c1cc(C(C)(C)CO)c(O)cc1NC(=O)c1c[nH]c2ccccc2c1=O [M1-Iva, hydroxymethyl ivacaftor] | No M1-Iva and M6-Iva were detected | no M1-Iva and M6-Iva were detected | 1/6 | 1/6 | 726 (365) ng/mL | 607 (256, 1170) ng/mL | 1036 (520) ng/mL | 913 (402, 1750) ng/mL | 501 (228) ng/mL | 475 (55, 839) ng/mL | 9.2 (4.29) h | 8.7 (3.35, 16.4) h | 5.3 (0.7) h | 5 (4, 6) h | 1.5 | 3156 | 1000 ng/ml and 2.5 μM | readily enters the airway epithelial cells | stronger inhibition | mean concentration in nasal brushings lysate (nasal brushings lysate): 696 ng/mL
